Where “and” joins values, the source holds several entries; their conditions need not be identical. Equal entries are not always repeated. Entries after “also recorded” stand apart in the source; their conditions may differ. Where two headings read alike, the source gives them in different places. Values belong to the compound of their own block, whether it stands above or below them.
Key:
phosphorylated AKT = test: Phosphorylated AKT western blot in SW1990 cells; format: cell-based, human; conditions: 24 hours with compound, EGF 10 ng/mL 15 minutes, FIG. 2
Experimental: (§1) Structure 1 decreased both phosphorylated AKT and phosphorylated ERK. Structure 1 had no effect on AKT or ERK (data not shown).
(§2) A method used to measure ERK and AKT is based on Welsch et al, Cell 168: 878-889 February 2017. SW1990 cells, growth driven by a G12D kRAS mutation and derived from human, pancreatic cancer cells, are plated in a 6-well plate at 1.5×10^6 cells per plate and grown overnight at 37° C. Media is replaced with serum-free media and the plate incubated an additional 24 hours. Media is replaced with media with or without compound and incubated for an additional 24 hours. EGF is added at a concentration of 10 ng/mL. After 15 minutes, cells are washed with ice cold PBS and lysed with RIPA buffer.
(§3) The lysate is processed by electrophoresis using a Mini-PROTEAN® gel mounted in a Mini-PROTEAN® Tetra Cell (cassette). Both the gel and the holding assembly (cassette) are purchased from BIORAD. The gel in the assembly is placed, electrode up, in the buffer tanks. The Tris/glycine/SDS buffer is added to both the inner buffer chamber (200 mL) and the outer buffer chamber (800 mL). […]
(§4) The membrane is placed into TTBS buffer containing SuperBlock T20 (Thermo Scientific) and incubated for 1 hour at room temperature. […] The anti pERK detected both pERK 1 and 2 (T202/Y204). […]

[1] = test system: Drosophila melanogaster flies with human G12V kRAS expressed in the wing; test: Fly screen: reversal of crinkled wing phenotype; format: in vivo
Source text: The Tosk approach uses Drosophila melanogaster flies as media for initial screening for RAS modulating compounds. Tosk has created a fruit fly with human kRAS G12V expressed in its wing. The mutant kRAS expressed in the fly wing appears functional, even though it operates in the presence of the other physiological systems present in the fly. The fly phenotype in the mutant fly is a crimped wing which can be reversed to a great extent if the fly is fed food enriched with an effective kRAS inhibitor. The fly kRAS suppressor screen can provide a more predictive model compared to conventional discovery methods because the kRAS is in its natural (i.e., not artificial/isolated/manipulated) environment anchored to the plasma membrane, positioned correctly, and surrounded by appropriate neighboring chemicals. Several reports have emphasized the importance of kRAS positioning and environment to realize protein activity.
2. Fly with Crinkled Wing Phenotype.
1. Production of Fly Food/Test Article Mix. A Biomek 2000 robotic arm is used to pipet 40 μL of a 10 mM DMSO solution of Test Article into a 35 mL polypropylene Drosophila fly vial (VWR 89092-728) containing 10 mL ETOH. A half teaspoon blue fly food (4-24, Carolina Biological Supply), is added and the tubes are vortexed and placed into a HT-4X GeneVac to remove the DMSO and ETOH. The tube is vortexed, 4 ml water added, and vortexed again. Control samples are tubes with fly food prepared with just 40 μL DMSO, no Test Article, or 40 μL of a DMSO solution containing 50 μM of the trametanib positive control. 2. Screen. Several hundred male G12V kRAS flies and several hundred GAL4 females are placed in a custom Plexiglas population cage (12″×12″×8″) made fly condo containing grape agar and yeast paste prepared using a published protocol. Embryos from the container are washed off the grape agar onto a sieve and re-suspended in an aqueous sucrose/salt/triton solution. An aliquot of this solution is analyzed using a dissecting microscope to determine the embryo concentration. The appropriate solution to deliver 150 embryos is then added to the fly food/Test article vials. The vial is capped with a cellulose fly bottle plug. […] The vials are incubated at 23° C. in a temperature-controlled room for 12 days. 3. Analysis. After 12 days, all flies in a vial are observed under a microscope following CO2 anesthesia for the number of phenotype reversals compared to the total number of viable flies. Cell culture testing is typically performed for any Test Article showing evidence of >25% phenotype reversal. The trametinib positive control provides reversal of the crimped/crinkled phenotype for 50-75% of the flies.
A library of over 16,000 distinct chemicals was purchased from ChemDiv, San Diego, Calif. All the compounds were evaluated in the fly screen described above for the ability to reverse the crinkled wing phenotype. […] One of the three compounds was Structure 1.

non-phosphorylated AKT = test: Non-phosphorylated AKT western blot in SW1990 cells; format: cell-based, human; conditions: data not shown
Experimental: as §1, §2, §3, §4

[2] = test system: SW620 human cancer cells (G12V kRAS); test: Cytotoxicity assay (CellTiter-Glo 2.0, 72 hours); format: cell-based
Experimental: FIG. 1, Cytotoxicity of exemplary compound (Structure 1) on SW620 human cancer cells. The cytotoxicity of compounds of interest are tested against the human colon cancer cell line SW620 as described in the experimental section. SW620 cells express a mutant G12V kRAS. Compounds are incubated with cells for 72 hours and the assay developed using Cell Titer Glo 2.0. IC50 values are determined using GraphPad Prism4.
Structure 1 was assayed for inhibition of cell proliferation and killing cancer cells. Cytotoxicity assays were conducted according to the following general procedure. SW620, SW1990, etc, were all maintained in Leibowitz L15 media supplemented with 10% fetal bovine serum and 1% PenStrep and grown in a 37° C. incubator without supplemental CO2. Cells were plated into 96 well flat bottom plates (2 million/plate, ˜20,000/well, 200 μLmedia/well). The cells were allowed to settle and adhere to plate bottom overnight.
Compounds were diluted in media from a 10 mM stock solution starting at 50 μM, using 2-fold dilutions, in a column in a 96-well plate. Media was removed from the plate containing cells and replaced with media containing diluted compounds. Plates were incubated 72 hours at 37° C. with no supplementary CO2. […] Luminescence was read with a FLx800 (BioTek Instruments). […]

non-phosphorylated ERK = test: Non-phosphorylated ERK western blot in SW1990 cells; format: cell-based, human; conditions: data not shown
Experimental: as §1, §2, §3, §4

phosphorylated ERK = test: Phosphorylated ERK western blot in SW1990 cells; format: cell-based, human; conditions: 24 hours with compound, EGF 10 ng/mL 15 minutes, FIG. 2
Experimental: as §1, §2, §3, §4

PI3K C2B = PI3K C2B (Homo sapiens, UniProt O00750); test: Protein kinase inhibition; format: biochemical; conditions: tested at 3 μM
Experimental: (§5) The exemplary compound was also tested at 3 μM for protein kinase inhibition against the following protein kinases: AKT1, AKT2, AKT3, EGF-R, EGF-R (L858R mutation), FRAP1, GSK3B, MAPK1 (ERK2), MAPK3 (ERK1), BRAF, BRAF V599E, MAP2K1 (MEK1), MAP2K2 (MEK2), PDK1, RAF1, PI3K C2A, PI3K C2B, P13K C3, PI3K 3A, PI3K CB, PI3K CD, and PI3K CG. […] The main downstream targets for kRAS are ERK (Samatar et al., Targeting RAS-ERK signaling in cancer: promises and challenges. Nat Rev Drug Discov. 2014; 13:928-42 and Martini et al., Ann Med. 2014; 46:372-83). kRAS activates ERK and AKT leading to phosphorylated ERK and phosphorylated AKT. A compound that suppresses kRAS activity is expected to lower phosphorylated ERK and phosphorylated AKT.

MAP2K1 (MEK1) = MAP2K1 (MEK1) (Homo sapiens, UniProt Q02750); test: Protein kinase inhibition; format: biochemical; conditions: tested at 3 μM
Experimental: as §5

AKT2 = AKT2 (Homo sapiens, UniProt P31751); test: Protein kinase inhibition; format: biochemical; conditions: tested at 3 μM
Experimental: as §5

AKT1 = AKT1 (Homo sapiens, UniProt P31749); test: Protein kinase inhibition; format: biochemical; conditions: tested at 3 μM
Experimental: as §5

PI3K CG = PI3K CG (Homo sapiens, UniProt P48736); test: Protein kinase inhibition; format: biochemical; conditions: tested at 3 μM
Experimental: as §5

BRAF = BRAF (Homo sapiens, UniProt P15056); test: Protein kinase inhibition; format: biochemical; conditions: tested at 3 μM
Sequence of BRAF (P15056 whole entry, species assumed): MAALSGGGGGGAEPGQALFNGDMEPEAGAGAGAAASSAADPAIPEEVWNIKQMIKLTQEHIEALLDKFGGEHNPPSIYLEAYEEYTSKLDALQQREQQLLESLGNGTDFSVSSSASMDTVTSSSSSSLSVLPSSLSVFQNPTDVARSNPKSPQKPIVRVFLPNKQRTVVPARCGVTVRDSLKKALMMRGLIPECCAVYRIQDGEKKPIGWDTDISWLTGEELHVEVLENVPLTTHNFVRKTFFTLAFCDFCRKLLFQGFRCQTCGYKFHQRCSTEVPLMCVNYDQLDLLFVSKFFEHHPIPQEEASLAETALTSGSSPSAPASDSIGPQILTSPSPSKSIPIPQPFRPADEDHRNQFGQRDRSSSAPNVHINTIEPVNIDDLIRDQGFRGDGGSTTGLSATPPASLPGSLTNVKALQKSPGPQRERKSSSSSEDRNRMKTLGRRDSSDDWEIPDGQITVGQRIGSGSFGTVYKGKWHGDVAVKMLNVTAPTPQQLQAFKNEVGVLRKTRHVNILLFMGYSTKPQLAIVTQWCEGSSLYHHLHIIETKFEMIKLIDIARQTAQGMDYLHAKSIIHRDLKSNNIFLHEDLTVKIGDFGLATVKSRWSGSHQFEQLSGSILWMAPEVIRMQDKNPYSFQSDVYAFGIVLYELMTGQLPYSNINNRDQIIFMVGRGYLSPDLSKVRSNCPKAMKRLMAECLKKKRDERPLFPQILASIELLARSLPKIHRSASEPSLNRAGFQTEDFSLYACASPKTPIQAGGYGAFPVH
Experimental: as §5

EGF-R = EGF-R (Homo sapiens, UniProt P00533); test: Protein kinase inhibition; format: biochemical; conditions: tested at 3 μM
Experimental: as §5

RAF1 = RAF1 (Homo sapiens, UniProt P04049); test: Protein kinase inhibition; format: biochemical; conditions: tested at 3 μM
Experimental: as §5

MAPK1 (ERK2) = MAPK1 (ERK2) (Homo sapiens, UniProt P28482); test: Protein kinase inhibition; format: biochemical; conditions: tested at 3 μM
Sequence of MAPK1 (ERK2) (P28482 whole entry, species assumed): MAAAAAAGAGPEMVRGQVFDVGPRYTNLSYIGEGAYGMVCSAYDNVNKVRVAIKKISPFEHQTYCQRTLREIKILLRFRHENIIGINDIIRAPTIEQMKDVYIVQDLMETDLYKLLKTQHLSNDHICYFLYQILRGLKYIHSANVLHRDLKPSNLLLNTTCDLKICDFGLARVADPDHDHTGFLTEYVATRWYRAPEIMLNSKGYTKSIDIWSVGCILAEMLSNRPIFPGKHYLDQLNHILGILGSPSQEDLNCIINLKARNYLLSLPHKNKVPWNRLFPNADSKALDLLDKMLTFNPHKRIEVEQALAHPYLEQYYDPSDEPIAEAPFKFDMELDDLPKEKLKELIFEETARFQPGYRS
Experimental: as §5

MAP2K2 (MEK2) = MAP2K2 (MEK2) (Homo sapiens, UniProt P36507); test: Protein kinase inhibition; format: biochemical; conditions: tested at 3 μM
Experimental: as §5

PI3K 3A = PI3K 3A (Homo sapiens, UniProt P42336); test: Protein kinase inhibition; format: biochemical; conditions: tested at 3 μM
Experimental: as §5

MAPK3 (ERK1) = MAPK3 (ERK1) (Homo sapiens, UniProt P27361); test: Protein kinase inhibition; format: biochemical; conditions: tested at 3 μM
Experimental: as §5

PI3K C2A = PI3K C2A (Homo sapiens, UniProt O00443); test: Protein kinase inhibition; format: biochemical; conditions: tested at 3 μM
Sequence of PI3K C2A (O00443 whole entry): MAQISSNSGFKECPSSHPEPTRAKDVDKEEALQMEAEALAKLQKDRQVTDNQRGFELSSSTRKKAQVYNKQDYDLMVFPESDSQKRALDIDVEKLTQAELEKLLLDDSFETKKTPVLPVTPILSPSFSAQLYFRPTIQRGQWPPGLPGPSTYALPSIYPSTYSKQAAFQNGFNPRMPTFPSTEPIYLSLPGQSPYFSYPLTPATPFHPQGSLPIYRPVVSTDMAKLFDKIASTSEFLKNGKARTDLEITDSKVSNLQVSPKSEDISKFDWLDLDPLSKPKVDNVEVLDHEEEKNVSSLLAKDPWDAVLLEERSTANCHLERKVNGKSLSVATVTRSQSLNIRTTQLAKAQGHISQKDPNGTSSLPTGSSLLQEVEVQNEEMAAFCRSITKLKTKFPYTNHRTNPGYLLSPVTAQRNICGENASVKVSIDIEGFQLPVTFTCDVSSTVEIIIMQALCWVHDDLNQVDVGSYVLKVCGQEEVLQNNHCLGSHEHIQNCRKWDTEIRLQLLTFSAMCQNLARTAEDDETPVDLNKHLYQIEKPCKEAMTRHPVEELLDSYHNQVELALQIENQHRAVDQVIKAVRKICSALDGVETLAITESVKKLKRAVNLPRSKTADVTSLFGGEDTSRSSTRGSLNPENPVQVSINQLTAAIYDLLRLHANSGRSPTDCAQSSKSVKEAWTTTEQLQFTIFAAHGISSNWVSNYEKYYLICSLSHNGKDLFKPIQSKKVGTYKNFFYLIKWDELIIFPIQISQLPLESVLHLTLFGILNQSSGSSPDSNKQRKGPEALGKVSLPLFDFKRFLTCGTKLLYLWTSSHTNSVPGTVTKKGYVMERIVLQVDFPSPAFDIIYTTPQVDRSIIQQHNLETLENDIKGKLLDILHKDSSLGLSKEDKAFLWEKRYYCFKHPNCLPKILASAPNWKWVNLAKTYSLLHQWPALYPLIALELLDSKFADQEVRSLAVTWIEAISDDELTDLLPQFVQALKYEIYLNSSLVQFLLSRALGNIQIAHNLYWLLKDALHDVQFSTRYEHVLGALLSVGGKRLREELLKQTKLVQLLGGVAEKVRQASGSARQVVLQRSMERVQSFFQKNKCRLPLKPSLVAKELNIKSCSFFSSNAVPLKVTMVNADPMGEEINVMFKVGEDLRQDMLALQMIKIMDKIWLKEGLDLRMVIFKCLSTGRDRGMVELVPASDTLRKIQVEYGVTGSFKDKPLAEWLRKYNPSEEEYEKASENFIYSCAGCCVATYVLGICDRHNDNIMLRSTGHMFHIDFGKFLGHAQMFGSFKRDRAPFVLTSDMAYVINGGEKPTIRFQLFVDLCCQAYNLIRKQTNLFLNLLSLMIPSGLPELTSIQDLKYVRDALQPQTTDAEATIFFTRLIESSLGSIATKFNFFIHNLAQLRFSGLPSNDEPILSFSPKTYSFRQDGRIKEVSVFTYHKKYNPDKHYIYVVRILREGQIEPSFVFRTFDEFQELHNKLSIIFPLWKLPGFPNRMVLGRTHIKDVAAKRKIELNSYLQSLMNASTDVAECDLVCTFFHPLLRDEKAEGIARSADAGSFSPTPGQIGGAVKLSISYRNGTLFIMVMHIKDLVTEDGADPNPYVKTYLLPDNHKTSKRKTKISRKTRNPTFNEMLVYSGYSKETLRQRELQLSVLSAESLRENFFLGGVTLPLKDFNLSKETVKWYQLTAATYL
Experimental: as §5

P13K C3 = P13K C3 (Homo sapiens, UniProt Q8NEB9); test: Protein kinase inhibition; format: biochemical; conditions: tested at 3 μM
Experimental: as §5

PI3K CB = PI3K CB (Homo sapiens, UniProt P42338); test: Protein kinase inhibition; format: biochemical; conditions: tested at 3 μM
Experimental: as §5

BRAF V599E = BRAF V599E (Homo sapiens, UniProt P15056, V600E); test: Protein kinase inhibition; format: biochemical; conditions: tested at 3 μM
Experimental: as §5

EGF-R (L858R mutation) = EGF-R (L858R mutation) (Homo sapiens, UniProt P00533, L858R); test: Protein kinase inhibition; format: biochemical; conditions: tested at 3 μM
Experimental: as §5

FRAP1 = FRAP1 (Homo sapiens, UniProt P42345); test: Protein kinase inhibition; format: biochemical; conditions: tested at 3 μM
Experimental: as §5

PDK1 = PDK1 (Homo sapiens, UniProt O15530); test: Protein kinase inhibition; format: biochemical; conditions: tested at 3 μM
Experimental: as §5

GSK3B = GSK3B (Homo sapiens, UniProt P49841); test: Protein kinase inhibition; format: biochemical; conditions: tested at 3 μM
Experimental: as §5

PI3K CD = PI3K CD (Homo sapiens, UniProt O00329); test: Protein kinase inhibition; format: biochemical; conditions: tested at 3 μM
Sequence of PI3K CD (O00329 whole entry): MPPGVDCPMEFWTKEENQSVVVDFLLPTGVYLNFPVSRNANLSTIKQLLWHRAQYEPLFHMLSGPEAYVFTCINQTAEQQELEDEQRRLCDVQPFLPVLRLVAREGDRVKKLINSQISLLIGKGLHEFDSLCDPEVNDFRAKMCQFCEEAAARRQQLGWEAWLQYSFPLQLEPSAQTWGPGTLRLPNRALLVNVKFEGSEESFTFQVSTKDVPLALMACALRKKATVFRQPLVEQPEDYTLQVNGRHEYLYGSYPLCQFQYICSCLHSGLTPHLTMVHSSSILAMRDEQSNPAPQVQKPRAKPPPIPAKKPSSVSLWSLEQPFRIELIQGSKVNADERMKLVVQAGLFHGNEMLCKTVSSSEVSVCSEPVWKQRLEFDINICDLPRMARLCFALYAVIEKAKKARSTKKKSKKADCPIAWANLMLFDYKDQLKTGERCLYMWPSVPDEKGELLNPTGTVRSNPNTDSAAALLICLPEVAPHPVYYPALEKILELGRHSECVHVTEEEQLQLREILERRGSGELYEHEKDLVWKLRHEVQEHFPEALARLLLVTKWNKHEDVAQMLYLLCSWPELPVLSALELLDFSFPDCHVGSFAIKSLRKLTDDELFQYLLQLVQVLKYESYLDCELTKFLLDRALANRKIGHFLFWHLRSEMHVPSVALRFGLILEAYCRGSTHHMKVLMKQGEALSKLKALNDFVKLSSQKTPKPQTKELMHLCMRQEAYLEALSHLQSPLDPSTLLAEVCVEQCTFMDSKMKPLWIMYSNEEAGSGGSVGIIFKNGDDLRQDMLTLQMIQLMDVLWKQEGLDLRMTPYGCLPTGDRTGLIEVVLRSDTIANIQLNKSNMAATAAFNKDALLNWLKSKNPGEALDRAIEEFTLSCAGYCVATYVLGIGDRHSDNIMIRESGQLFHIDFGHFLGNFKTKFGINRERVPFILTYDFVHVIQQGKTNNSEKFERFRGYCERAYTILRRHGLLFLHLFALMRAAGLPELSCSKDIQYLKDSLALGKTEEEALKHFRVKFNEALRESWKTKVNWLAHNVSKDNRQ
Sequence of PI3K CD (P27986 whole entry partner): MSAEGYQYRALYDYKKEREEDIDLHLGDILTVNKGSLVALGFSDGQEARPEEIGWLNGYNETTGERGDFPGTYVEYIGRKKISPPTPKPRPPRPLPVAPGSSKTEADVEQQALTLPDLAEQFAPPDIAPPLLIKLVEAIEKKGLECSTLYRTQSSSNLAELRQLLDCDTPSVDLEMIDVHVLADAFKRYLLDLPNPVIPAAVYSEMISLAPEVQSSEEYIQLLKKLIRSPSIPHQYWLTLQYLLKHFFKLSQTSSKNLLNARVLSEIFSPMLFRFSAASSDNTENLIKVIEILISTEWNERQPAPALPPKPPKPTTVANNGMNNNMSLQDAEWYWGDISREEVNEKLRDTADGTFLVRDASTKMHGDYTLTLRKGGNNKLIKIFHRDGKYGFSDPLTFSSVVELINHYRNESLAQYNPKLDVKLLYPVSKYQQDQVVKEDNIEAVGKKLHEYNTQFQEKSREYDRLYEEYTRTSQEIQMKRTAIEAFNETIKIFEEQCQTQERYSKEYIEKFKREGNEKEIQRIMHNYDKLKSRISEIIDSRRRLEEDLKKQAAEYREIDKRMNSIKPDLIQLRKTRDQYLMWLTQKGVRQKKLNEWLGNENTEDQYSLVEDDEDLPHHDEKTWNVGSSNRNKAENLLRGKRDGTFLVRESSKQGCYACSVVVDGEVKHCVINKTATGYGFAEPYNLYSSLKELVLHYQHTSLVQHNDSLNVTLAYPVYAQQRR
Experimental: as §5

AKT3 = AKT3 (Homo sapiens, UniProt Q9Y243); test: Protein kinase inhibition; format: biochemical; conditions: tested at 3 μM
Sequence of AKT3 (Q9Y243 whole entry, species assumed): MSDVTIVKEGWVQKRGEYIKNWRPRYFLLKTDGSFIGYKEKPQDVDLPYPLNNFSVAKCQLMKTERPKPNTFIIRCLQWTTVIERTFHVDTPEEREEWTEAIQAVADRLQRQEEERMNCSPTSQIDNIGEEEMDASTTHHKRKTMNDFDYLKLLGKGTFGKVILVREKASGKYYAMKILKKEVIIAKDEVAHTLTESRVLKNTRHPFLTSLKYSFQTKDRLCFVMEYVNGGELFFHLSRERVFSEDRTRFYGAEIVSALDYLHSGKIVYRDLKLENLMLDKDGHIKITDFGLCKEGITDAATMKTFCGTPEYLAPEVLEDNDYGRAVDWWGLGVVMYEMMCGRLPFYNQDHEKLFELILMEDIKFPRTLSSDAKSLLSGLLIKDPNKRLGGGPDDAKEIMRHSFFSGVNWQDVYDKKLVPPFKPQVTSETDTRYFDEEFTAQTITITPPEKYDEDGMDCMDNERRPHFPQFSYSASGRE
Experimental: as §5

- Kinase inhibitory activity, PI3K C2B (PI3K C2B): No kinase inhibitory activity
- Kinase inhibitory activity, MAP2K1 (MEK1) (MAP2K1 (MEK1)): No kinase inhibitory activity
- Kinase inhibitory activity, AKT2 (AKT2): No kinase inhibitory activity
- Kinase inhibitory activity, AKT1 (AKT1): No kinase inhibitory activity
- Kinase inhibitory activity, PI3K CG (PI3K CG): No kinase inhibitory activity
- Kinase inhibitory activity, BRAF (BRAF): No kinase inhibitory activity
- Kinase inhibitory activity, EGF-R (EGF-R): No kinase inhibitory activity
- Kinase inhibitory activity, RAF1 (RAF1): No kinase inhibitory activity
- Kinase inhibitory activity, MAPK1 (ERK2) (MAPK1 (ERK2)): No kinase inhibitory activity
- Kinase inhibitory activity, MAP2K2 (MEK2) (MAP2K2 (MEK2)): No kinase inhibitory activity
- Kinase inhibitory activity, PI3K 3A (PI3K 3A): No kinase inhibitory activity
- Kinase inhibitory activity, MAPK3 (ERK1) (MAPK3 (ERK1)): No kinase inhibitory activity
- Kinase inhibitory activity, PI3K C2A (PI3K C2A): No kinase inhibitory activity
- Kinase inhibitory activity, P13K C3 (P13K C3): No kinase inhibitory activity
- Kinase inhibitory activity, PI3K CB (PI3K CB): No kinase inhibitory activity
- Kinase inhibitory activity, BRAF V599E (BRAF V599E): No kinase inhibitory activity
- Kinase inhibitory activity, EGF-R (L858R mutation) (EGF-R (L858R mutation)): No kinase inhibitory activity
- Kinase inhibitory activity, FRAP1 (FRAP1): No kinase inhibitory activity
- Kinase inhibitory activity, PDK1 (PDK1): No kinase inhibitory activity
- Kinase inhibitory activity, GSK3B (GSK3B): No kinase inhibitory activity
- Kinase inhibitory activity, PI3K CD (PI3K CD): No kinase inhibitory activity
- Kinase inhibitory activity, AKT3 (AKT3): No kinase inhibitory activity
SMILES: Cc1nc2c(-c3ccccc3)c(C)nn2c(NCc2ccccn2)c1Cc1ccccc1 [Structure 1]
- Effect on phosphorylated AKT (phosphorylated AKT): decreased; also recorded: suppressed
- Flies with Reversed Phenotype ([1]; Experiment 1, 20 μM in fly food): 75%
- Flies with phenotype reversals relative to positive control trametinib ([1]; Experiment 1, 75% versus 29%): over 2.5 fold
- Flies with Reversed Phenotype ([1]; Experiment 2, 20 μM in fly food): 58%
- Ability to reverse the crinkled wing phenotype in library screen ([1]; screen of over 16,000 ChemDiv compounds, ~100 μM in fly food, 12 days): reliably reversed the phenotype
- Effect on non-phosphorylated AKT (non-phosphorylated AKT): no effect; also recorded: without affecting
- IC50 ([2]; SW-620, Cell Titer Glo 2.0, read-out: IC50, cytotoxicity on SW620 human cancer cells (FIG. 1 legend)): 3.9 µM
- IC50 ([2]; SW-620, CellTiter-Glo 2.0, read-out: IC50 in the SW620 cells): 3.9 µM
- Effect on non-phosphorylated ERK (non-phosphorylated ERK): no effect; also recorded: without affecting
- Effect on phosphorylated ERK (phosphorylated ERK): decreased; also recorded: suppressed

SMILES: CC(=O)Nc1cccc(-n2c(=O)n(C3CC3)c(=O)c3c(Nc4ccc(I)cc4F)n(C)c(=O)c(C)c32)c1 [Trametinib]
- Reversal of the crimped/crinkled phenotype, share of the flies (positive control, general) ([1]; 40 μL of 50 μM DMSO solution in fly food, 12 days): 50-75%
- Flies with Reversed Phenotype ([1]; Experiment 1, 0.5 μM in fly food): 29%
- Flies with Reversed Phenotype ([1]; Experiment 2, 0.5 μM in fly food): 63% and 64%
- Flies with Reversed Phenotype ([1]; Experiment 2, 0.5 μM in fly food, listed as trametinib): 63% and 64%
